This passage reports Ki results from patent US20070203206A1, “2-Pyrrolidone Derivatives And Use Thereof As Factor Xa Inhibitors” (priority 2003, published 2007).

The test deals with T1, human Factor Xa (Homo sapiens, UniProt P00742).
T1 construct: containing human Factor Xa (final conc. Of 0.0003 U·ml-1)
Put plainly: In vitro fluorogenic assay for inhibition of Factor Xa. It counts as biochemical. On the procedure: In Vitro Assay for Inhibition of Factor Xa
Compounds of the present invention were tested for their Factor Xa inhibitory activity as determined in vitro by their ability to inhibit human Factor Xa in a fluorogenic assay, using Rhodamine 110, bis-CBZ-glycylglycyl-L-arginine amide as the fluorogenic substrate. Compounds were diluted from a 10 mM stock solution in dimethylsulfoxide at appropriate concentrations. Assay was performed at room temperature using buffer consisting of: 50 mM Tris-HCl, 150 mM NaCl, 5 mM CaCl2, pH 7.4. containing human Factor Xa (final conc. Of 0.0003 U·ml-1). Compound and enzyme were preincubated for 15 min prior to addition of the substrate (final conc. of 10 μM). The reaction was stopped after 3 hrs with the addition of H-D-Phe-Pro-Arg-Chloromethylketone. […] To obtain IC50 values the data were analysed using ActivityBase® and XLfit®.
Calculation of Ki values: Ki=IC50/(1+[Substrate]/Km)
The Ki value for the above assay can be obtained by dividing the IC50 value by 1.6.

The mark [1] stands for this setting: human Factor Xa, Rhodamine 110 bis-CBZ-glycylglycyl-L-arginine amide substrate 10 μM, 15 min preincubation, room temperature, pH 7.4, Ki = IC50/1.6, read-out: Ki value.

The structures appear in SMILES notation. Structures can show the parent of a compound that is named as a salt. Where two headings read alike, the source gives them in different places.

The Ki is the dissociation constant of the complex between target and ligand, obtained from inhibition or displacement.

T1 sequence (P00742 235-488 limits assumed): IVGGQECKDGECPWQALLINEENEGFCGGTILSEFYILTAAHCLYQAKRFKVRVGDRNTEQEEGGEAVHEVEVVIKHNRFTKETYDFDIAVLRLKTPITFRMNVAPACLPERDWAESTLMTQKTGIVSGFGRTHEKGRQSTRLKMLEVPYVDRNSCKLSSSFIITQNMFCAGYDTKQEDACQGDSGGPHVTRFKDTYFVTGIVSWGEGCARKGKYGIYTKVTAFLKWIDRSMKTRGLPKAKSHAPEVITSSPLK
T1 sequence (P00742 41-179 partner limits assumed): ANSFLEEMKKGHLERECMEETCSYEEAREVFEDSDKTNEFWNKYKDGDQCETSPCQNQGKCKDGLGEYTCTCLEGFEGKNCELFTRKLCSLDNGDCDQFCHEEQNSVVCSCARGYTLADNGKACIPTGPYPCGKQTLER

Compound `C/C(=C\S(=O)(=O)NC1CCN(c2ccc(C(=O)N(C)CCc3cccnc3)cc2F)C1=O)c1ccc(Cl)s1` (centres unmarked) [Example 30, 4-[3-({[(1E)-2-(5-Chloro-2-thienyl)-1-propen-1-yl]sulfonyl}amino)-2-oxo-1-pyrrolidinyl]-3-fluoro-N-methyl-N-[2-(3-pyridinyl)ethyl]benzamide] came in with a Ki (Ki value) below 100 nM.
For `C/C(=C\S(=O)(=O)NC1CCN(c2ccc(C(=O)N(C)CCS(C)(=O)=O)cc2F)C1=O)c1ccc(Cl)s1` (centres unmarked) [Example 4, 4-[3-({[(1E)-2-(5-Chloro-2-thienyl)-1-propen-1-yl]sulfonyl}amino)-2-oxo-1-pyrrolidinyl]-3-fluoro-N-methyl-N-[2-(methylsulfonyl)ethyl]benzamide], the Ki under setting [1] is below 100 nM.
Same read-out and setting: for `CN(CCN)C(=O)c1ccc(N2CCC(NS(=O)(=O)c3cc4ccc(Cl)cc4s3)C2=O)c(F)c1` (centres unmarked) [Example 28] the value was below 1000 nM.
`CNCCN(C)C(=O)c1ccc(N2CCC(NS(=O)(=O)/C=C(\C)c3ccc(Cl)s3)C2=O)c(F)c1` (centres unmarked) [Example 1, 4-[3-({[(1E)-2-(5-Chloro-2-thienyl)-1-propen-1-yl]sulfonyl}amino)-2-oxo-1-pyrrolidinyl]-3-fluoro-N-methyl-N-[2-(methylamino)ethyl]benzamide] had a Ki (Ki value) below 100 nM.
In the case of `C/C(=C\S(=O)(=O)NC1CCN(c2ccc(C(=O)N(C)Cc3ccccn3)cc2F)C1=O)c1ccc(Cl)s1` (centres unmarked) [Example 3, 4-[3-({[(1E)-2-(5-Chloro-2-thienyl)-1-propen-1-yl]sulfonyl}amino)-2-oxo-1-pyrrolidinyl]-3-fluoro-N-methyl-N-(2-pyridinylmethyl)benzamide], under “Ki value”, the Ki is below 100 nM.
As to `CNCCN(C)C(=O)c1ccc(N2CCC(NS(=O)(=O)c3cc4ccc(Cl)cc4s3)C2=O)c(F)c1` (centres unmarked) [Example 26, 4-(3-{[(6-Chloro-1-benzothien-2-yl)sulfonyl]amino}-2-oxo-1-pyrrolidinyl)-3-fluoro-N-methyl-N-[2-(methylamino)ethyl]benzamide formate], under setting [1], the Ki was below 100 nM.
Compound `COCCN(C)C(=O)c1ccc(N2CCC(NS(=O)(=O)/C=C(\C)c3ccc(Cl)s3)C2=O)c(F)c1` (centres unmarked) [Example 5, 4-[3-({[(1E)-2-(5-Chloro-2-thienyl)-1-propen-1-yl]sulfonyl}amino)-2-oxo-1-pyrrolidinyl]-3-fluoro-N-methyl-N-[2-(methyloxy)ethyl]benzamide] had a Ki (Ki value) below 1000 nM.
On to `C/C(=C\S(=O)(=O)NC1CCN(c2ccc(C(=O)N(C)CCO)cc2F)C1=O)c1ccc(Cl)s1` (centres unmarked) [Example 2, 4-[3-({[(1E)-2-(5-Chloro-2-thienyl)-1-propen-1-yl]sulfonyl}amino)-2-oxo-1-pyrrolidinyl]-3-fluoro-N-(2-hydroxyethyl)-N-methylbenzamide], for which the Ki under setting [1] was below 1000 nM.
Where the note is “Ki value”, `C/C(=C\S(=O)(=O)NC1CCN(c2ccc(C(=O)N(C)CCc3c[nH]cn3)cc2F)C1=O)c1ccc(Cl)s1` (centres unmarked) [Example 31, 4-[3-({[(1E)-2-(5-Chloro-2-thienyl)-1-propen-1-yl]sulfonyl}amino)-2-oxo-1-pyrrolidinyl]-3-fluoro-N-[2-(1H-imidazol-4-yl)ethyl]-N-methylbenzamide] came in with an inhibition constant (Ki) below 100 nM.
On to `O=C(NCc1ccncc1)c1ccc(N2CCC(NS(=O)(=O)/C=C/c3ccc(Cl)s3)C2=O)c(F)c1` (centres unmarked) [Example 8, 4-[3-({[(E)-2-(5-Chloro-2-thienyl)ethenyl]sulfonyl}amino)-2-oxo-1-pyrrolidinyl]-3-fluoro-N-(4-pyridinylmethyl)benzamide], for which the Ki under setting [1] was below 1000 nM.
As to `CN(C)CCN(C)C(=O)c1ccc(N2CCC(NS(=O)(=O)c3cc4ccc(Cl)cc4s3)C2=O)c(F)c1` (centres unmarked) [Example 25, 4-(3-{[(6-Chloro-1-benzothien-2-yl)sulfonyl]amino}-2-oxo-1-pyrrolidinyl)-N-[2-(dimethylamino)ethyl]-3-fluoro-N-methylbenzamide formate], the Ki under setting [1] is below 1000 nM.
Same read-out and setting: next, `O=C(NCc1cccnc1)c1ccc(N2CCC(NS(=O)(=O)/C=C/c3ccc(Cl)s3)C2=O)c(F)c1` (centres unmarked) [Example 9, 4-[3-({[(E)-2-(5-Chloro-2-thienyl)ethenyl]sulfonyl}amino)-2-oxo-1-pyrrolidinyl]-3-fluoro-N-(3-pyridinylmethyl)benzamide]: below 1000 nM; `CN(CCc1cccnc1)C(=O)c1ccc(N2CCC(NS(=O)(=O)c3cc4ccc(Cl)cc4s3)C2=O)c(F)c1` (centres unmarked) [Example 27, 4-(3-{[(6-Chloro-1-benzothien-2-yl)sulfonyl]amino}-2-oxo-1-pyrrolidinyl)-3-fluoro-N-methyl-N-[2-(3-pyridinyl)ethyl]benzamide]: below 100 nM; `C/C(=C\S(=O)(=O)NC1CCN(c2ccc(C(=O)N(C)CCN(C)C)cc2F)C1=O)c1ccc(Cl)s1` (centres unmarked) [Example 29, 4-[3-({[(1E)-2-(5-chloro-2-thienyl)-1-propen-1-yl]sulfonyl}amino)-2-oxo-1-pyrrolidinyl]-N-[2-(dimethylamino)ethyl]-3-fluoro-N-methylbenzamide formate]: below 100 nM.
